Data reported in ChEMBL document CHEMBL1671859, “bla(IMP-4) in different genetic contexts in Enterobacteriaceae isolates from Australia” (2008).
Values after ≈ are worked out from the molar mass of the structure shown.

What was measured:
Format in all cases: functional
Klebsiella pneumoniae [1] = assay: Antibacterial activity against Klebsiella pneumoniae isolate Kp211 harboring IncA/C plasmid and blaIMP-4-qacG2-aacA4-catB3 array by Etest method
Klebsiella pneumoniae [2] = assay: Antibacterial activity against Klebsiella pneumoniae isolate Kp7564 harboring IncL/M plasmid and blaIMP-4-qacG2-aacA4-catB3 array by Etest method
Escherichia coli [3] = assay: Antibacterial activity against Escherichia coli isolate Ec9381 harboring IncL/M plasmid and blaIMP-4-qacG2-aacA4-catB3 array by Etest method
Acinetobacter = assay: Antibacterial activity against Acinetobacter isolate A74510 harboring blaIMP-4-qacG2-aacA4-catB3 array by Etest method
Klebsiella pneumoniae [4] = assay: Antibacterial activity against Klebsiella pneumoniae Kp2730 transconjugant harboring IncL/M plasmid and blaIMP-4-qacG2-aacA4-catB3 and dfrA12-orfF-aadA2 arrays by Etest method
Serratia marcescens [5] = assay: Antibacterial activity against Serratia marcescens isolate Sm2723 harboring IncL/M plasmid and blaIMP-4-qacG2-aacA4-catB3 array by Etest method
Enterobacter cloacae [6] = assay: Antibacterial activity against Enterobacter cloacae isolate El3799 harboring IncL/M plasmid and blaIMP-4-qacG2-aacA4-catB3 array by Etest method
Serratia marcescens [7] = assay: Antibacterial activity against Serratia marcescens isolate Sm211 harboring IncA/C plasmid and blaIMP-4-qacG2-aacA4-catB3 array by Etest method
Klebsiella pneumoniae [8] = assay: Antibacterial activity against Klebsiella pneumoniae isolate Kp38009 harboring IncL/M plasmid and blaIMP-4-qacG2-aacA4-catB3 array by Etest method
Serratia marcescens [9] = assay: Antibacterial activity against Serratia marcescens Sm2723 transconjugant harboring IncL/M plasmid and blaIMP-4-qacG2-aacA4-catB3 array by Etest method
Serratia marcescens [10] = assay: Antibacterial activity against Serratia marcescens isolate Sm265 harboring IncA/C plasmid and blaIMP-4-qacG2-aacA4-catB3 array by Etest method
Escherichia coli [11] = assay: Antibacterial activity against Escherichia coli isolate Ec158 harboring IncA/C plasmid and blaIMP-4-qacG2-aacA4-catB3 array by Etest method
Morganella morganii [12] = assay: Antibacterial activity against Morganella morganii isolate Mm1229 harboring IncL/M plasmid and blaIMP-4-qacG2-aacA4-catB3 array by Etest method
Enterobacter cloacae [13] = assay: Antibacterial activity against Enterobacter cloacae El1573 transconjugant harboring IncL/M plasmid and blaIMP-4-qacG2-aacA4-catB3 array by Etest method
Morganella morganii [14] = assay: Antibacterial activity against Morganella morganii Mm1229 transconjugant harboring IncL/M plasmid and blaIMP-4-qacG2-aacA4-catB3 array by Etest method
Serratia marcescens [15] = assay: Antibacterial activity against Serratia marcescens isolate Sm203 harboring IncA/C plasmid and blaIMP-4-qacG2-aacA4-catB3 array by Etest method
Citrobacter koseri [16] = assay: Antibacterial activity against Citrobacter koseri Ck211 transconjugant harboring IncA/C plasmid and blaIMP-4-qacG2-aacA4-catB3 array by Etest method
Escherichia coli [17] = assay: Antibacterial activity against Escherichia coli Ec9381 transconjugant harboring IncL/M plasmid and blaIMP-4-qacG2-aacA4-catB3 array by Etest method
Enterobacter cloacae [18] = assay: Antibacterial activity against Enterobacter cloacae El3518 transconjugant harboring IncL/M plasmid and blaIMP-4-qacG2-aacA4-catB3 array by Etest method
Citrobacter amalonaticus [19] = assay: Antibacterial activity against Citrobacter amalonaticus isolate Ca38009 harboring IncL/M plasmid and blaIMP-4-qacG2-aacA4-catB3 array by Etest method
Klebsiella oxytoca = assay: Antibacterial activity against Klebsiella oxytoca Ko238 transconjugant harboring IncA/C plasmid and blaIMP-4-qacG2-aacA4-catB3 array by Etest method
Serratia marcescens [20] = assay: Antibacterial activity against Serratia marcescens isolate Sm201 harboring IncA/C plasmid and blaIMP-4-qacG2-aacA4-catB3 array by Etest method
Klebsiella pneumoniae [21] = assay: Antibacterial activity against Klebsiella pneumoniae isolate Kp204 harboring IncA/C plasmid and blaIMP-4-qacG2-aacA4-catB3 array by Etest method
Escherichia coli [22] = assay: Antibacterial activity against Escherichia coli Ec221 transconjugant harboring IncA/C plasmid and blaIMP-4-qacG2-aacA4-catB3 array by Etest method
Morganella morganii [23] = assay: Antibacterial activity against Morganella morganii isolate Mm1614 harboring IncL/M plasmid and blaIMP-4-qacG2-aacA4-catB3 array by Etest method
Klebsiella pneumoniae [24] = assay: Antibacterial activity against Klebsiella pneumoniae isolate Kp1945 harboring IncL/M plasmid and blaIMP-4-qacG2-aacA4-catB3 and dfrA12-orfF-aadA2 arrays by Etest method
Morganella morganii [25] = assay: Antibacterial activity against Morganella morganii Mm38009 transconjugant harboring IncL/M plasmid and blaIMP-4-qacG2-aacA4-catB3 array by Etest method
Citrobacter amalonaticus [26] = assay: Antibacterial activity against Citrobacter amalonaticus isolate Ca1614 harboring IncL/M plasmid and blaIMP-4-qacG2-aacA4-catB3 array by Etest method
Enterobacter cloacae [27] = assay: Antibacterial activity against Enterobacter cloacae isolate El3518 harboring IncL/M plasmid and blaIMP-4-qacG2-aacA4-catB3 array by Etest method
Klebsiella pneumoniae [28] = assay: Antibacterial activity against Klebsiella pneumoniae isolate Kp149 harboring IncA/C plasmid and blaIMP-4-qacG2-aacA4-catB3 array by Etest method
Acinetobacter baumannii = assay: Antibacterial activity against Acinetobacter baumannii isolate AbN450 harboring […]-qacG2-aacA4-catB3 array by Etest method
Enterobacter cloacae [29] = assay: Antibacterial activity against Enterobacter cloacae isolate El3280 harboring IncL/M plasmid and blaIMP-4-qacG2-aacA4-catB3 array by Etest method
Klebsiella pneumoniae [30] = assay: Antibacterial activity against Klebsiella pneumoniae Kp204 transconjugant harboring IncA/C plasmid and blaIMP-4-qacG2-aacA4-catB3 array by Etest method
Citrobacter koseri [31] = assay: Antibacterial activity against Citrobacter koseri isolate Ck211 harboring IncA/C plasmid and blaIMP-4-qacG2-aacA4-catB3 array by Etest method
Enterobacter cloacae [32] = assay: Antibacterial activity against Enterobacter cloacae isolate El1573 harboring IncL/M plasmid and blaIMP-4-qacG2-aacA4-catB3 array by Etest method
Klebsiella pneumoniae [33] = assay: Antibacterial activity against Klebsiella pneumoniae Kp149 transconjugant harboring IncA/C plasmid and blaIMP-4-qacG2-aacA4-catB3 array by Etest method
Citrobacter amalonaticus [34] = assay: Antibacterial activity against Citrobacter amalonaticus Ca38009 transconjugant harboring IncL/M plasmid and blaIMP-4-qacG2-aacA4-catB3 array by Etest method
Klebsiella pneumoniae [35] = assay: Antibacterial activity against Klebsiella pneumoniae isolate Kp2730 harboring IncL/M plasmid and blaIMP-4-qacG2-aacA4-catB3 and dfrA12-orfF-aadA2 arrays by Etest method
Klebsiella pneumoniae [36] = assay: Antibacterial activity against Klebsiella pneumoniae isolate Kp3799 harboring IncL/M plasmid and blaIMP-4-qacG2-aacA4-catB3 array by Etest method
Klebsiella pneumoniae [37] = assay: Antibacterial activity against Klebsiella pneumoniae Kp38009 transconjugant harboring IncL/M plasmid and blaIMP-4-qacG2-aacA4-catB3 array by Etest method
Klebsiella pneumoniae [38] = assay: Antibacterial activity against Klebsiella pneumoniae Kp3799 transconjugant harboring IncL/M plasmid and blaIMP-4-qacG2-aacA4-catB3 array by Etest method

## C[C@@H](O)[C@H]1C(=O)N2C(C(=O)O)=C(SCCNC=N)C[C@H]12 [IMIPENEM ANHYDROUS]
Klebsiella pneumoniae [1]
  MIC: 2 µg/mL (≈ 6.68 µM)
Klebsiella pneumoniae [2]
  MIC: 7 µg/mL (≈ 23.4 µM)
Escherichia coli [3]
  MIC: 1.5 µg/mL (≈ 5.01 µM)
Acinetobacter
  MIC: > 8 µg/mL
Klebsiella pneumoniae [4]
  MIC: 2 µg/mL (≈ 6.68 µM)
Serratia marcescens [5]
  MIC: 1.5 µg/mL (≈ 5.01 µM)
Enterobacter cloacae [6]
  MIC: 1 µg/mL (≈ 3.34 µM)
Serratia marcescens [7]
  MIC: 4 µg/mL (≈ 13.4 µM)
Klebsiella pneumoniae [8]
  MIC: 0.5 µg/mL (≈ 1.67 µM)
Serratia marcescens [9]
  MIC: 2 µg/mL (≈ 6.68 µM)
Serratia marcescens [10]
  MIC: > 8 µg/mL
Escherichia coli [11]
  MIC: ≤ 1 µg/mL
Morganella morganii [12]
  MIC: 4 µg/mL (≈ 13.4 µM)
Enterobacter cloacae [13]
  MIC: 2 µg/mL (≈ 6.68 µM)
Morganella morganii [14]
  MIC: 2 µg/mL (≈ 6.68 µM)
Serratia marcescens [15]
  MIC: 4 µg/mL (≈ 13.4 µM)
Citrobacter koseri [16]
  MIC: ≤ 1 µg/mL
Escherichia coli [17]
  MIC: ≤ 1 µg/mL
Enterobacter cloacae [18]
  MIC: 2 µg/mL (≈ 6.68 µM)
Citrobacter amalonaticus [19]
  MIC: 1.5 µg/mL (≈ 5.01 µM)
Klebsiella oxytoca
  MIC: 2 µg/mL (≈ 6.68 µM)
Serratia marcescens [20]
  MIC: 8 µg/mL (≈ 26.7 µM)
Klebsiella pneumoniae [21]
  MIC: 8 µg/mL (≈ 26.7 µM)
Escherichia coli [22]
  MIC: 4 µg/mL (≈ 13.4 µM)
Morganella morganii [23]
  MIC: 8 µg/mL (≈ 26.7 µM)
Klebsiella pneumoniae [24]
  MIC: 8 µg/mL (≈ 26.7 µM)
Morganella morganii [25]
  MIC: 2 µg/mL (≈ 6.68 µM)
Citrobacter amalonaticus [26]
  MIC: 4 µg/mL (≈ 13.4 µM)
Enterobacter cloacae [27]
  MIC: 3 µg/mL (≈ 10 µM)
Klebsiella pneumoniae [28]
  MIC: 8 µg/mL (≈ 26.7 µM)
Acinetobacter baumannii
  MIC: > 8 µg/mL
Enterobacter cloacae [29]
  MIC: 3 µg/mL (≈ 10 µM)
Klebsiella pneumoniae [30]
  MIC: 4 µg/mL (≈ 13.4 µM)
Citrobacter koseri [31]
  MIC: ≤ 1 µg/mL
Enterobacter cloacae [32]
  MIC: 8 µg/mL (≈ 26.7 µM)
Klebsiella pneumoniae [33]
  MIC: 4 µg/mL (≈ 13.4 µM)
Citrobacter amalonaticus [34]
  MIC: 2 µg/mL (≈ 6.68 µM)
Klebsiella pneumoniae [35]
  MIC: 8 µg/mL (≈ 26.7 µM)
Klebsiella pneumoniae [36]
  MIC: 4 µg/mL (≈ 13.4 µM)
Klebsiella pneumoniae [37]
  MIC: ≤ 1 µg/mL
Klebsiella pneumoniae [38]
  MIC: 2 µg/mL (≈ 6.68 µM)

## GENTAMICIN
Klebsiella pneumoniae [1]
  MIC: > 8 µg/mL
Klebsiella pneumoniae [2]
  MIC: > 8 µg/mL
Escherichia coli [3]
  MIC: > 8 µg/mL
Acinetobacter
  MIC: > 8 µg/mL
Klebsiella pneumoniae [4]
  MIC: > 8 µg/mL
Serratia marcescens [5]
  MIC: > 8 µg/mL
Enterobacter cloacae [6]
  MIC: > 8 µg/mL
Serratia marcescens [7]
  MIC: > 8 µg/mL
Klebsiella pneumoniae [8]
  MIC: > 8 µg/mL
Serratia marcescens [9]
  MIC: > 8 µg/mL
Serratia marcescens [10]
  MIC: 8 µg/mL
Escherichia coli [11]
  MIC: > 8 µg/mL
Morganella morganii [12]
  MIC: > 8 µg/mL
Enterobacter cloacae [13]
  MIC: > 8 µg/mL
Morganella morganii [14]
  MIC: > 8 µg/mL
Serratia marcescens [15]
  MIC: > 8 µg/mL
Citrobacter koseri [16]
  MIC: > 8 µg/mL
Escherichia coli [17]
  MIC: > 8 µg/mL
Enterobacter cloacae [18]
  MIC: > 8 µg/mL
Citrobacter amalonaticus [19]
  MIC: > 8 µg/mL
Klebsiella oxytoca
  MIC: < 2 µg/mL
Serratia marcescens [20]
  MIC: > 8 µg/mL
Klebsiella pneumoniae [21]
  MIC: < 2 µg/mL
Escherichia coli [22]
  MIC: < 2 µg/mL
Morganella morganii [23]
  MIC: > 8 µg/mL
Klebsiella pneumoniae [24]
  MIC: > 8 µg/mL
Morganella morganii [25]
  MIC: > 8 µg/mL
Citrobacter amalonaticus [26]
  MIC: > 8 µg/mL
Enterobacter cloacae [27]
  MIC: > 8 µg/mL
Klebsiella pneumoniae [28]
  MIC: > 8 µg/mL
Acinetobacter baumannii
  MIC: > 8 µg/mL
Enterobacter cloacae [29]
  MIC: > 8 µg/mL
Klebsiella pneumoniae [30]
  MIC: < 2 µg/mL
Citrobacter koseri [31]
  MIC: > 8 µg/mL
Enterobacter cloacae [32]
  MIC: > 8 µg/mL
Klebsiella pneumoniae [33]
  MIC: > 8 µg/mL
Citrobacter amalonaticus [34]
  MIC: > 8 µg/mL
Klebsiella pneumoniae [35]
  MIC: > 8 µg/mL
Klebsiella pneumoniae [36]
  MIC: > 8 µg/mL
Klebsiella pneumoniae [37]
  MIC: > 8 µg/mL
Klebsiella pneumoniae [38]
  MIC: > 8 µg/mL
